# What was measured:
# [1] = molecular target: Histone-lysine N-methyltransferase 2A (Homo sapiens, UniProt Q03164); assay: Inhibition of MLL1 (unknown origin) using peptide substrate preincubated for 10 mins followed by substrate addition for 4 hrs by HTRF assay
# [2] = molecular target: Histone-lysine N-methyltransferase 2B (Homo sapiens, UniProt Q9UMN6); assay: Inhibition of MLL4 (unknown origin) using peptide substrate preincubated for 10 mins followed by substrate addition for 4 hrs by HTRF assay
# [3] = molecular target: T1, Protein arginine N-methyltransferase 5 (Homo sapiens, UniProt O14744); assay: Inhibition of PRMT5 (unknown origin) using histone H4 (1 to 21 residues) peptide/SAM as substrate incubated for 210 mins in presence of SAM by AlphaLISA assay
# [4] = tested on: A-375; assay: Induction of apoptosis in human A-375 cells assessed as total apoptotic cells at 0.5 uM incubated for 48 hrs by Annexin-V FITC/PI staining based flow cytometry analysis relative to control; assay type: functional
# [5] = tested on: A-375; assay: Induction of apoptosis in human A-375 cells assessed as total apoptotic cells at 4 uM incubated for 48 hrs by Annexin-V FITC/PI staining based flow cytometry analysis relative to control; assay type: functional
# [6] = Metabolic stability in rat liver microsomes assessed as half life measured up to 60 mins in presence of NADPH by LC-MS/MS analysis; assay type: ADME, Microsome
# [7] = Metabolic stability in mouse liver microsomes assessed as half life measured up to 60 mins in presence of NADPH by LC-MS/MS analysis; assay type: ADME, Microsome
# [8] = Metabolic stability in rat liver microsomes assessed as clearance measured up to 60 mins in presence of NADPH by LC-MS/MS analysis; assay type: ADME, Microsome; details: 1 h
# [9] = Metabolic stability in mouse liver microsomes assessed as clearance measured up to 60 mins in presence of NADPH by LC-MS/MS analysis; assay type: ADME, Microsome; details: 1 h
# [10] = molecular target: T1, Protein arginine N-methyltransferase 5; assay: Displacement of [3H]-SAM from PRMT5 (unknown origin) using peptide substrate preincubated for 15 mins followed by substrate addition for 60 mins by radioactive biochemical assay
# [11] = Cmax in Sprague-Dawley rat at 10 mg/kg, po measured for 0.25 to 24 hrs by LC-MS/MS analysis; assay type: ADME, organism-based; design: time lower 0.25 hrs, dose 10 mg/kg, time upper 24 hrs, route po; details: in vivo
# [12] = Clearance in Sprague-Dawley rat at 3 mg/kg, iv measured for 0.25 to 24 hrs by LC-MS/MS analysis; assay type: ADME, organism-based; details: in vivo, time 0.25-24 hrs
# [13] = Volume of distribution at steady state in Sprague-Dawley rat at 3 mg/kg, iv measured for 0.25 to 24 hrs by LC-MS/MS analysis; assay type: ADME, organism-based; details: in vivo, time 0.25-24 hrs, read-out: Vdss
# [14] = Oral bioavailability in Sprague-Dawley rat at 10 mg/kg, measured for 0.25 to 24 hrs by LC-MS/MS analysis; assay type: ADME, organism-based; details: in vivo, time 0.25-24 hrs
# [15] = Toxicity in BALB/c mouse xenografted with human A375 cells assessed as change in body weight at 75 mg/kg, po qd for 19 days and measured every 3 days; assay type: organism-based, A-375; details: in vivo, 456 h, time 19 day
# T1 sequence (O14744 whole entry, the tested form may be a part): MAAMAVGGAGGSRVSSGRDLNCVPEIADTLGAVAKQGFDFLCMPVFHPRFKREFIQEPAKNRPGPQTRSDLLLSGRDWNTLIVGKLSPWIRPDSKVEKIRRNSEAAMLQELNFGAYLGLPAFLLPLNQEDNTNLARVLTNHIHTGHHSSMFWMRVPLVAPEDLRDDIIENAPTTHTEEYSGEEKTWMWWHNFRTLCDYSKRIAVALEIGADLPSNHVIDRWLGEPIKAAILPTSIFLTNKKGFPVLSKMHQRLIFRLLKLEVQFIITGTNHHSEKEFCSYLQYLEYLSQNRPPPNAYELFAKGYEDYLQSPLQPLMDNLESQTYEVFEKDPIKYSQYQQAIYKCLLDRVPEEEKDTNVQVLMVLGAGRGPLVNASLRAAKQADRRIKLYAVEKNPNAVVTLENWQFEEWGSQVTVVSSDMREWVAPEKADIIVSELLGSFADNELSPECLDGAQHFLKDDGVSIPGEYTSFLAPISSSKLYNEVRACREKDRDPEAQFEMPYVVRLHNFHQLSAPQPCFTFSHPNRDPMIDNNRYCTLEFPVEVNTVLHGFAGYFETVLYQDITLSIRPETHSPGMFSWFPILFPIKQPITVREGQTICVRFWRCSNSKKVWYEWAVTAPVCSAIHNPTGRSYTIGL
# Chain of Histone-lysine N-methyltransferase 2B (Q9UMN6 whole entry, the tested form may be a part): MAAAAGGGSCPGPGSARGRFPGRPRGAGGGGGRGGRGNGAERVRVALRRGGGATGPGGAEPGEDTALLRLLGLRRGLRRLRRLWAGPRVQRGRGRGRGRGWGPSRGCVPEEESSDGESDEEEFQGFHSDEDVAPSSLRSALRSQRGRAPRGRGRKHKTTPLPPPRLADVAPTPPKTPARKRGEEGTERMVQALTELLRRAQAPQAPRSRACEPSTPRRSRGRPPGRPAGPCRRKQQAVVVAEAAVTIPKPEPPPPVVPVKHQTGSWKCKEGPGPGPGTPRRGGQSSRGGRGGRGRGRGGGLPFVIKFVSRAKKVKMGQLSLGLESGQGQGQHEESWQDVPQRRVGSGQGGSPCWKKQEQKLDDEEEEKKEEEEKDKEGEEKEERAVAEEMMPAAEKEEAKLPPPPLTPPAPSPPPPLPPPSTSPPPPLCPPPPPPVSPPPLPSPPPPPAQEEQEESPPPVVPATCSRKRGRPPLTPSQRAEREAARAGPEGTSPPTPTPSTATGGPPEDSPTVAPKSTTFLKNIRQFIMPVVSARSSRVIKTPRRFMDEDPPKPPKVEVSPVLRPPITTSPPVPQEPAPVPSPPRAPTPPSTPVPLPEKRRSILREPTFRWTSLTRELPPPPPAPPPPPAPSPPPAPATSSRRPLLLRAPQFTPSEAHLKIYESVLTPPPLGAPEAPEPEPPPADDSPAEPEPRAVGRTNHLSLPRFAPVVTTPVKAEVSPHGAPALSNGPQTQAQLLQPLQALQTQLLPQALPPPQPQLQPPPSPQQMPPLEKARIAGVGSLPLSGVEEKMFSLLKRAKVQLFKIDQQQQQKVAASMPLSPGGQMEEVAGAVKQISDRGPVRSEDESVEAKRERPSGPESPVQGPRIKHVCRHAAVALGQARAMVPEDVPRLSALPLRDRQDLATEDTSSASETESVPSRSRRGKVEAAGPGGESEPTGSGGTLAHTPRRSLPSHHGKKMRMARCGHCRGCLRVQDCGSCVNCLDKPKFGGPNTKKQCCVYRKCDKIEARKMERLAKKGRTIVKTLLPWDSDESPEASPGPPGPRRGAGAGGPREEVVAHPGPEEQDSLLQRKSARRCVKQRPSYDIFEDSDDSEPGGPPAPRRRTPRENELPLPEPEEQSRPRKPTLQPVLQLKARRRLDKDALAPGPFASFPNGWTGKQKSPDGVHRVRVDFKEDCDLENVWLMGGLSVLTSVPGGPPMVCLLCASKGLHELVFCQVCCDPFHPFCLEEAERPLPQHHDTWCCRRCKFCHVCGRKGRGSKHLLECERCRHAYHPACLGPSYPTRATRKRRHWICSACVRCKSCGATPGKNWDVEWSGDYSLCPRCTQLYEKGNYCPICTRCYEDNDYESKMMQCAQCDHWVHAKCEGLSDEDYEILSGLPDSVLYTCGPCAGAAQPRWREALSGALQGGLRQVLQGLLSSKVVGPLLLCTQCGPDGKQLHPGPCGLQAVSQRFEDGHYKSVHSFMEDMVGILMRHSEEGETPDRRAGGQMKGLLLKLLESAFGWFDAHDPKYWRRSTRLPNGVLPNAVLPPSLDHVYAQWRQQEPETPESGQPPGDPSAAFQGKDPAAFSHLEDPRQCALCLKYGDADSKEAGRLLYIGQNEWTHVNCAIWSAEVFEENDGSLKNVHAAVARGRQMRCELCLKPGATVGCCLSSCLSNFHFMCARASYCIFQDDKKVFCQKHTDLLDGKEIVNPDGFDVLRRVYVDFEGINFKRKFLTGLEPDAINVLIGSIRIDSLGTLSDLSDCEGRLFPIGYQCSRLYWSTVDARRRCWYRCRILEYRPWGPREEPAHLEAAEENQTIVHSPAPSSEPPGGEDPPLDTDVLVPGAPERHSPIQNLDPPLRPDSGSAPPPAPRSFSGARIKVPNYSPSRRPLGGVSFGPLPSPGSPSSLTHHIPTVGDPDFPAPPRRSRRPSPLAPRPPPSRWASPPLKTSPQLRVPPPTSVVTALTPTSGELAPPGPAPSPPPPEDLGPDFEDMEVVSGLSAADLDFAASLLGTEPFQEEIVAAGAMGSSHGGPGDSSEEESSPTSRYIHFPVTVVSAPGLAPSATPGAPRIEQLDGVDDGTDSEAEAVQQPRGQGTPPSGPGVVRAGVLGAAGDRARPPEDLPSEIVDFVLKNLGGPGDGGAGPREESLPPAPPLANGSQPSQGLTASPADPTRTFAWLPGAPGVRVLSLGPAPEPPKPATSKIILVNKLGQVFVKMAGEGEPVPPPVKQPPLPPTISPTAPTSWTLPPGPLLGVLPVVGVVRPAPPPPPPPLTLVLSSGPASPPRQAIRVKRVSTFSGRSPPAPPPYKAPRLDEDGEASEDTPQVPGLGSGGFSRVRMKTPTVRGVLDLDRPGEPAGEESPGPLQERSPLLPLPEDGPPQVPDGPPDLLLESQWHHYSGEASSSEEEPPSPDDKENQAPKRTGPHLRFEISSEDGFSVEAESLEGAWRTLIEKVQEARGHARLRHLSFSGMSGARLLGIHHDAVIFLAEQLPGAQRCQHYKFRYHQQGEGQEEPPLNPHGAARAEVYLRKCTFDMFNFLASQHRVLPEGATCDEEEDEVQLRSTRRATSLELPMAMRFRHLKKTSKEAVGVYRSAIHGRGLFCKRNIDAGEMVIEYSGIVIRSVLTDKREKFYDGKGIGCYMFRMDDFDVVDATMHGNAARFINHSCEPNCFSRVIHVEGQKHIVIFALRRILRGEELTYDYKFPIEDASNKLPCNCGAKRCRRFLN
compound,measurement,setting,value
C[C@H](Oc1ccc(-c2cc3c(C4=CCNCC4)ncnc3[nH]2)cc1)c1ccccc1,IC50,[1],> 20000 nM
same,IC50,[2],> 20000 nM
same,IC50,[3],47 nM
same,Activity,[4],5.58%
same,Activity,[5],95.9%
same,half-life,[6],9.25 min
same,half-life,[7],68.4 min
same,CLH,[8],227 mL/min/g
same,CLH,[9],30.7 mL/min/g
same,IC50,[10],23.9 nM
same,Cmax,[11],8.22 ng/mL
same,clearance,[12],310 mL/min/kg
same,Vd,[13],62.5 L/kg
same,bioavailability,[14],7.25%
same,Activity,[15],Non-Toxic

# Source: ChEMBL document CHEMBL5154928, “Structure-Aided Design, Synthesis, and Biological Evaluation of Potent and Selective Non-Nucleoside Inhibitors Targeting Protein Arginine Methyltransferase 5” (J Med Chem, 2022)
